Like-named read-outs stand apart in the source and are kept apart here.
Tests used:
[1] = system: Key Broadleaf Weed and Crop Species; test: Post-emergent Test II herbicidal activity (Table 15); format: in vivo; conditions: post-emergence, 336 h, 14 d; for pest or weed control at 35 g/ha: 35 g ai/ha; for pest or weed control at 70 g/ha: 70 g ai/ha; for pest or weed control at 140 g/ha: 140 g ai/ha
Summary of the method: (§1)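 Plants at first-second true leaf stage, grown 7-21 d in greenhouse (~15 h photoperiod, 23-29 °C day), were track-sprayed at 187 L/ha with compound in acetone/DMSO/water/isopropanol/crop oil/Triton X-155 at a high rate plus 1/2× to 1/16× dilutions. Injury scored visually after 14 d versus untreated plants, 0 (none) to 100% (complete kill).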

[2] = system: Key Grass and Sedge Weeds as well as Grass Crops; test: Post-emergent Test II herbicidal activity (Table 16); format: in vivo; conditions: post-emergence, 336 h, 14 days after application; for pest or weed control at 35 g/ha: 35 g ai/ha; for pest or weed control at 70 g/ha: 70 g ai/ha; for pest or weed control at 140 g/ha: 140 g ai/ha
Summary of the method: as §1

[3] = Abutilon theophrasti, velvetleaf (Abutilon theophrasti), read-out: Visual Growth Reduction (%) 14 Days After Application, ABUTH
[4] = Amaranthus retroflexus, redroot pigweed (Amaranthus retroflexus), read-out: Visual Growth Reduction (%) 14 Days After Application, AMARE
[5] = Brassica napus, oilseed rape, canola (Brassica napus), read-out: Visual Growth Reduction (%) 14 Days After Application, BRSNN
[6] = Chenopodium album, lambsquarters (Chenopodium album), read-out: Visual Growth Reduction (%) 14 Days After Application, CHEAL
[7] = Euphorbia heterophylla, wild poinsettia (Euphorbia heterophylla), read-out: Visual Growth Reduction (%) 14 Days After Application, EPHHL
[8] = Helianthus annuus, sunflower (Helianthus annuus), read-out: Visual Growth Reduction (%) 14 Days After Application, HELAN
[9] = Cyperus esculentus, yellow nutsedge (Cyperus esculentus), read-out: Visual Growth Reduction (%) 14 Days After Application CYPES
[10] = Echinochloa crus-galli, barnyardgrass (Echinochloa crus-galli), read-out: Visual Growth Reduction (%) 14 Days After Application ECHCG
[11] = Oryza sativa, rice (Oryza sativa), read-out: Visual Growth Reduction (%) 14 Days After Application ORYSA
[12] = Setaria faberi, giant foxtail (Setaria faberi), read-out: Visual Growth Reduction (%) 14 Days After Application SETFA
[13] = Triticum aestivum, wheat, spring (Triticum aestivum), read-out: Visual Growth Reduction (%) 14 Days After Application TRZAS
[14] = Zea mays, maize, corn (Zea mays), read-out: Visual Growth Reduction (%) 14 Days After Application ZEAMX

Compound | pest or weed control at 35 g/ha [1, 3] [%] | pest or weed control at 70 g/ha [1, 3] [%] | pest or weed control at 140 g/ha [1, 3] [%] | pest or weed control at 35 g/ha [1, 4] [%] | pest or weed control at 70 g/ha [1, 4] [%] | pest or weed control at 140 g/ha [1, 4] [%] | pest or weed control at 35 g/ha [1, 5] [%] | pest or weed control at 70 g/ha [1, 5] [%] | pest or weed control at 140 g/ha [1, 5] [%] | pest or weed control at 35 g/ha [1, 6] [%] | pest or weed control at 70 g/ha [1, 6] [%] | pest or weed control at 140 g/ha [1, 6] [%] | pest or weed control at 35 g/ha [1, 7] [%] | pest or weed control at 70 g/ha [1, 7] [%] | pest or weed control at 140 g/ha [1, 7] [%] | pest or weed control at 35 g/ha [1, 8] [%] | pest or weed control at 70 g/ha [1, 8] [%] | pest or weed control at 140 g/ha [1, 8] [%] | pest or weed control at 35 g/ha [2, 9] [%] | pest or weed control at 70 g/ha [2, 9] [%] | other results
Nc1c(F)c(-c2ccc3scnc3c2)nc(C(=O)O)c1Cl [Compound 6.02] | 85 to 94 | 85 to 94 | 85 to 94 | 95 to 100 | 95 to 100 | 95 to 100 | 95 to 100 | 95 to 100 | 95 to 100 | 95 to 100 | 95 to 100 | 95 to 100 | 95 to 100 | 95 to 100 | 95 to 100 | 95 to 100 | 95 to 100 | 95 to 100 | 45 to 59 | 45 to 59 | pest or weed control at 140 g/ha [2, 9]: 45 to 59%; pest or weed control at 35 g/ha [2, 10]: 75 to 84%; pest or weed control at 70 g/ha [2, 10]: 75 to 84%; pest or weed control at 140 g/ha [2, 10]: 85 to 94%; pest or weed control at 35 g/ha [2, 11]: 0 to 29%; pest or weed control at 70 g/ha [2, 11]: 0 to 29%; pest or weed control at 140 g/ha [2, 11]: 0 to 29%; pest or weed control at 35 g/ha [2, 12]: 0 to 29%; pest or weed control at 70 g/ha [2, 12]: 45 to 59%; pest or weed control at 140 g/ha [2, 12]: 60 to 74%; pest or weed control at 35 g/ha [2, 13]: 0 to 29%; pest or weed control at 70 g/ha [2, 13]: 0 to 29%; pest or weed control at 140 g/ha [2, 13]: 30 to 44%; pest or weed control at 35 g/ha [2, 14]: 0 to 29%; pest or weed control at 70 g/ha [2, 14]: 0 to 29%; pest or weed control at 140 g/ha [2, 14]: 0 to 29%; melting point: 186 to 187 °C
COC(=O)c1nc(-c2ccc3ncn(C)c3c2)c(F)c(N)c1Cl [Compound 7.02] | 0 to 29 | 0 to 29 | 0 to 29 | 0 to 29 | 0 to 29 | 0 to 29 | 0 to 29 | 0 to 29 | 0 to 29 | 0 to 29 | 75 to 84 | 95 to 100 | 0 to 29 | 0 to 29 | 0 to 29 | 0 to 29 | 0 to 29 | 0 to 29 | 0 to 29 | 0 to 29 | pest or weed control at 140 g/ha [2, 9]: 0 to 29%; pest or weed control at 35 g/ha [2, 10]: 0 to 29%; pest or weed control at 70 g/ha [2, 10]: 0 to 29%; pest or weed control at 140 g/ha [2, 10]: 0 to 29%; pest or weed control at 35 g/ha [2, 11]: 0 to 29%; pest or weed control at 70 g/ha [2, 11]: 0 to 29%; pest or weed control at 140 g/ha [2, 11]: 0 to 29%; pest or weed control at 35 g/ha [2, 13]: 0 to 29%; pest or weed control at 70 g/ha [2, 13]: 0 to 29%; pest or weed control at 140 g/ha [2, 13]: 0 to 29%; pest or weed control at 35 g/ha [2, 14]: 0 to 29%; pest or weed control at 70 g/ha [2, 14]: 0 to 29%; pest or weed control at 140 g/ha [2, 14]: 0 to 29%; melting point: 218 to 220 °C
